Experimental data as given in patent publication US6949522B2, “β-2′- or 3′-halonucleosides” (Pharmasset, Inc., priority 2001, dated 2005).
pEC50: −log10 of the molar value.

Experiments:
[1] = in vitro; type: cell-based, human; conditions: human
How it was run: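 Cytotoxicity measured in uninfected PHA-stimulated human PBM cells (Ficoll-Hypaque-isolated from HIV-1/HBV-seronegative donors), CEM T-lymphoblastoid and Vero cells exposed to ten-fold serial drug dilutions. Viability read by MTT dye reduction, overnight dye incubation, absorbance at 570 nm.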

[2] = in vitro; type: cell-based, African green monkey; conditions: African green monkey, Cytotoxicity (IC50) Vero
[3] = tested on: HBV; assay: HBV Q-PCR in the HepG2.2.15 cell system; type: cell-based, hepatitis B virus; conditions: 10 μM, HepG2.2.15 system
[4] = tested on: HIV-1LAI; conditions: human PBM cells; reported in Org. Lett. 2002; read-out: anti-HIV activity EC50; cited from earlier work

Cc1cn([C@H]2C[C@H](N=[N+]=[N-])[C@@H](CO)O2)c(=O)[nH]c1=O [AZT, 3′-azido-3′-deoxythymidine, reference compound]
IC50 at 5 days [1]: > 100 µM
IC50 at 3 days [2]: 28 µM

Nc1ccn([C@@H]2CS[C@H](CO)O2)c(=O)n1 [Compound 3TC, (−)-β-2′,3′-dideoxy-3′-thiacytidine, reference compound]
maximal reduction of HBV DNA [3]: 0.6 logs

Nc1ccn([C@H]2S[C@@H](CO)C=C2F)c(=O)n1 [Compound L-17, (+)-1-[(1S,4R)-2,3-dideoxy-2,3-didehydro-2-fluoro-4-thio-β-L-ribofuranosyl]-cytosine]
pEC50 [4]: 6.92
